# Key:
# [1] = test system: Pseudomonas aeruginosa (n = 100); assay: MIC90, expanded MIC panel (Table 4); assay type: cell-based; settings: 100 Pa strains
# Protocol: (§1) II. […] MIC90 values were defined as the concentration required to inhibit growth of 90% of the strains tested. • C. SAR was performed using the following isolates: Sa399 (ATCC43300, MRSA), Sa1721 (NARSA NRS384, MRSA USA 300), Pa44 (ATCC27853), and 4 clinical isolates (Pa2241, Pa2086 (mucoid strain), Pa2694 and Pa2698). • D. The in vitro antibacterial activity of the compound of formula (I) was further evaluated in an expanded MRSA and Pa MIC panel (see Table 4 and FIG. 6).
# [2] = test system: Sa399 (MRSA); assay: MIC, broth microdilution (Example 3), Table 1; assay type: cell-based; settings: Staphylococcus aureus, CAMHB, final 2% NaCl
# Protocol: (§2) To prepare for MIC testing, individual colonies were isolated by streaking frozen glycerol material containing Staphylococcus or Pseudomonas spp. onto rich, non-selective, tryptic soy agar containing 5% sheep's blood (TSAB), and incubated at 37° C. for 18-24 hrs.
# (§3) On the day of testing, primary cultures were started by scraping off 5-10 colonies from the TSAB plates. The material was suspended in ˜5 mL of cation adjusted Mueller Hinton Broth (CAMHB) in 14 mL culture tubes and incubated at 37° C. with aeration (200 rpm) for ˜2 hrs until the OD600 was ≧0.1.
# (§4) Inoculum cultures were prepared by standardizing the primary cultures to OD600=0.1 and then adding 20 μL of the adjusted primary culture per 1 mL CAMHB for Pseudomonas and CAMHB plus 4% NaCl for MRSA so that the final inoculum density was ˜10^5 colony forming units per milliliter. Diluted inoculum cultures were used to inoculate 50 μL per well in 96 well broth microdilution assay plates. 50 μL of CAMHB that contained compound concentrations ranging from 64-0.06 μg/mL in two-fold dilutions was also added to the broth microdilution assay plates for a final volume 100 μL per well, therefore final culture OD600 was approximately 0.001 and the final NaCl concentration for the MRSA strain was 2%.
# (§5) Plates were incubated for 18-20 hours at 37° C. with aeration (200 rpm). Following incubation, growth was confirmed visually placing plates over a viewing apparatus (stand with a mirror underneath) and then OD600 was measured using a SpectraMax 340PC384 plate reader (Molecular Devices, Sunnyvale, Calif.). Growth was defined as turbidity that could be detected with the naked eye or achieving minimum OD600 of 0.1. MIC values were defined as the lowest concentration producing no visible turbidity.
# [3] = test system: Pa44 (WT Pa); assay: MIC, broth microdilution (Example 3), Table 1; assay type: cell-based; settings: Pseudomonas aeruginosa, CAMHB
# Protocol: as §2, §3, §4, §5
# [4] = test system: Klebsiella pneumoniae #573; assay: Mouse septicemia (systemic infection), PD50; assay type: in vivo; settings: Kpn #573; CD-1 mice, IP inoculum, 2 SC doses at 1 and 6 hrs, 7 day survival
# Protocol: (§6) In vivo efficacy of (I) was evaluated against strains of MRSA, and ceftazidime-resistant Pa and Klebsiella pneumonia (Kpn) in mouse septicemia, thigh and lung infections. Septicemia: CD-1 mice received lethal bacterial inocula IP, followed by 2 doses of antibiotics SC at 1 and 6 hrs post-inoculation. Dose calculated to protect 50% of the mice (PD50) was derived based on probit analysis of percentage survival. Thigh and lung infections: Thighs or lungs of neutropenic mice were inoculated with MRSA or Pa. Two treatment doses were given SC at 1 and 6 hrs post-inoculation. Tissues were harvested at ˜24 hrs post-inoculation and bacterial burdens quantified.
# (§7) II. Methods • A. Animals: Six week-old, specific pathogen free, female CD-1 mice purchased from Charles River Laboratories (Wilmington, Mass.) were used for all studies after acclimation in Cubist animal facility. […] MIC was determined in MHB by standard CLSI microdilution. […] The survival of animals was recorded daily for 7 days. The antibiotic dose calculated to protect 50% of the mice (PD50) was derived based on probit analysis of percentage survival. • E. Mouse Thigh and Lung Infections: Mice were rendered neutropenic by two IP injections of cyclophosphamide 4 days (150 mg/kg) and 1 day (100 mg/kg) before bacterial inoculation. […] Tissue bacterial burdens were quantified by serial dilution and spiral plating of homogenates.
# [5] = test system: Pa #2545; assay: MIC in MHB by standard CLSI microdilution (Example 4); assay type: cell-based; settings: Pseudomonas aeruginosa
# Excerpt: (§8) II. Methods • A. Animals: Six week-old, specific pathogen free, female CD-1 mice purchased from Charles River Laboratories (Wilmington, Mass.) were used for all studies after acclimation in Cubist animal facility. All animal procedures were approved by the Cubist Institutional Animal Care and Use Committee. • B. Bacteria and In Vitro Susceptibility Testing: MRSA #712, Pseudomonas aeruginosa #2245 and #2545, and Klebsiella pneumoniae #573 are clinical isolates; Pseudomonas aeruginosa #44 is an ATCC strain (ATCC#27853). MIC was determined in MHB by standard CLSI microdilution. Comparator Antibiotics Used in Animal Studies: Vancomycin hydrochloride USP was purchased from Hospira (Lake Forest, Ill.); ceftazidime hydrate from Sigma; Primaxin (imipenem and cilastatin) from Merck; ceftaroline was synthesized at a CRO. • D. Mouse Septicemia: Mice received lethal inocula of bacteria in 6% hog gastric mucin intraperitoneally (IP), followed by two treatment doses of antibiotics via subcutaneous (SC) administration at 1 and 6 hrs post-inoculation. The survival of animals was recorded daily for 7 days. The antibiotic dose calculated to protect 50% of the mice (PD50) was derived based on probit analysis of percentage survival. • E. Mouse Thigh and Lung Infections: Mice were rendered neutropenic by two IP injections of cyclophosphamide 4 days (150 mg/kg) and 1 day (100 mg/kg) before bacterial inoculation. Thigh or lung infection was induced by an intramuscular injection of 0.2 mL or intranasal inoculation of 0.1 mL inoculum preparation from an overnight bacterial culture into left thigh or nares. Tissues from one group of mice receiving no treatment (No Rx) were harvested at 1 hr for determination of baseline of bacterial burden. The remaining mice received two treatment doses of vehicles or antibiotics given SC at 1 and 6 hrs post-inoculation. Tissues from the treated mice were harvested at ˜24 hrs post-inoculation. Tissue bacterial burdens were quantified by serial dilution and spiral plating of homogenates.
# [6] = test system: Kpn #573; assay: as above; assay type: cell-based; settings: Klebsiella pneumoniae
# Excerpt: as §8
# [7] = test system: Pa #44 (ATCC27853); assay: as above; assay type: cell-based; settings: Pseudomonas aeruginosa
# Excerpt: as §8
# [8] = test system: Pseudomonas aeruginosa #44 (ATCC#27853); assay: Mouse septicemia (systemic infection), PD50; assay type: in vivo; settings: Pa #44 (ATCC27853), CD-1 mice, IP inoculum, 2 SC doses at 1 and 6 hrs, 7 day survival
# Protocol: as §6
# II. Methods • A. Animals: Six week-old, specific pathogen free, female CD-1 mice purchased from Charles River Laboratories (Wilmington, Mass.) were used for all studies after acclimation in Cubist animal facility. All animal procedures were approved by the Cubist Institutional Animal Care and Use Committee. • B. Bacteria and In Vitro Susceptibility Testing: MRSA #712, Pseudomonas aeruginosa #2245 and #2545, and Klebsiella pneumoniae #573 are clinical isolates; Pseudomonas aeruginosa #44 is an ATCC strain (ATCC#27853). MIC was determined in MHB by standard CLSI microdilution. […] The survival of animals was recorded daily for 7 days. The antibiotic dose calculated to protect 50% of the mice (PD50) was derived based on probit analysis of percentage survival. • E. Mouse Thigh and Lung Infections: Mice were rendered neutropenic by two IP injections of cyclophosphamide 4 days (150 mg/kg) and 1 day (100 mg/kg) before bacterial inoculation. […] Tissue bacterial burdens were quantified by serial dilution and spiral plating of homogenates.
# III. […] The dose that protected 50% of the mice (PD50) was calculated by probit analysis based on percentage of mice surviving for 7 days post-inoculation. • C. […]
# [9] = test system: Sa1721 (NARSA NRS384, MRSA USA 300); assay: MIC, broth microdilution (Example 5), Table 3; assay type: cell-based; settings: Staphylococcus aureus
# Protocol: as §1
# [10] = test system: Pa44 (ATCC27853); assay: MIC, broth microdilution (Example 5), Table 3; assay type: cell-based; settings: Pseudomonas aeruginosa
# Protocol: as §1
# [11] = test system: Sa399 (ATCC43300, MRSA); assay: MIC, broth microdilution (Example 5), Table 3; assay type: cell-based; settings: Staphylococcus aureus
# Protocol: as §1
# [12] = test system: Pa2698; assay: MIC, broth microdilution (Example 5), Table 3; assay type: cell-based; settings: Pseudomonas aeruginosa
# Protocol: as §1
# [13] = test system: Pa2694; assay: MIC, broth microdilution (Example 5), Table 3; assay type: cell-based; settings: Pseudomonas aeruginosa
# Protocol: as §1
# [14] = test system: Pa2241; assay: MIC, broth microdilution (Example 5), Table 3; assay type: cell-based; settings: Pseudomonas aeruginosa
# Protocol: as §1
# [15] = test system: Pa2086 (mucoid strain); assay: MIC, broth microdilution (Example 5), Table 3; assay type: cell-based; settings: Pseudomonas aeruginosa
# Protocol: as §1
# [16] = test system: ceftazidime-resistant Pseudomonas aeruginosa #2545; assay type: in vivo; settings: Pa #2545; CD-1 mice, IP inoculum, 2 SC doses at 1 and 6 hrs, 7 day survival
# Protocol: as §6, §7
# [17] = test system: ceftazidime-susceptible Pseudomonas aeruginosa #2245; assay: Lung infection in neutropenic mice; assay type: in vivo; settings: Pa #2245 lung infection, 3-log CFU reduction vs vehicle at 24 h
# Protocol: as §6, §8
# [18] = test system: ceftazidime-resistant Pseudomonas aeruginosa #2545; assay: Lung infection in neutropenic mice; assay type: in vivo; settings: Pa #2545 lung infection
# Protocol: as §6, §8
# [19] = test system: ceftazidime-susceptible Pseudomonas aeruginosa #44 (ATCC#27853); assay: Lung infection in neutropenic mice; assay type: in vivo; settings: Pa #44 lung infection
# Protocol: as §6, §8
# [20] = test system: MRSA (n = 21); assay: MIC90, expanded MIC panel (Table 4); assay type: cell-based; settings: Staphylococcus aureus; 21 MRSA strains; read-out: MIC90 MRSA (n = 21)
# Protocol: as §1
# [21] = test system: MRSA #712; assay: MIC in MHB by standard CLSI microdilution (Example 4); assay type: cell-based; settings: Staphylococcus aureus; MRSA #712; read-out: MIC
# Excerpt: as §8
Structure (SMILES),MIC90 [1] [µg/mL],MIC [2] [µg/mL],MIC [3] [µg/mL],MIC [9] [µg/mL],MIC [10] [µg/mL],MIC [11] [µg/mL],MIC [12] [µg/mL],MIC [13] [µg/mL],MIC [14] [µg/mL],MIC [15] [µg/mL],also measured
C[C@@H](O)[C@H]1C(=O)N2C(C(=O)O)=C(S[C@@H]3CN[C@H](C(=O)N(C)C)C3)[C@H](C)[C@H]12 [Meropenem],4,,,,,,,,,,
CO/N=C(\C(=O)N[C@@H]1C(=O)N2C(C(=O)[O-])=C(C[n+]3ccc(CNC(=O)c4cccc(CCNC(=O)C(F)(F)F)c4)cc3)CS[C@H]12)c1nc(N)sc1Cl [Compound 1-4],,8 to 16,> 16,,,,,,,,
CC(C)(O/N=C(\C(=O)N[C@@H]1C(=O)N2C(C(=O)[O-])=C(C[n+]3ccccc3)CS[C@H]12)c1csc(N)n1)C(=O)O [Ceftazidime],8,> 16,≤ 4,> 64,2,64,8,8,2,2,"Septicemia PD50 (± SE) [4]: 50.3 ± 8.4 mg/kg; MIC [5]: 32 to 64 µg/mL; MIC [6]: 256 µg/mL; MIC [7]: 1 µg/mL; Septicemia PD50 (± SE) [8]: 33.9 ± 7.4 mg/kg; Septicemia PD50 (± SE) ([8]; listed as ceftazidime): 33.9 ± 7.4 mg/kg; Septicemia PD50 (± SE) [16]: >140.5 mg/kg; ED−3 log [17]: 27.2 mg/kg; Lung (L) ED−2log ([18]; neutropenic mice, 2 SC doses at 1 and 6 hrs, 24 h, vs vehicle): >144.5 (L) mg/kg; impact on the bacterial burden in the lung ([18]; up to 144.5 mg/kg): minimal impact; Lung (L) ED−2log ([19]; 2 SC doses at 1 and 6 hrs, 24 h, vs vehicle): 25.6 (L) mg/kg; ED−3 log ([19]; 3-log CFU reduction vs vehicle at 24 h): 50.4 mg/kg"
"CCO/N=C(\C(=O)N[C@@H]1C(=O)N2C(C(=O)[O-])=C(Sc3nc(-c4cc[n+](C)cc4)cs3)CS[C@H]12)c1nsc(N)n1 [Ceftaroline, ceftaroline]",,,,2,8,0.5,> 64,> 64,16,16,MIC90 [20]: 1 µg/mL; MIC [21]: 1 µg/mL
CCCc1ccc(C(=O)NCc2cc[n+](CC3=C(C(=O)[O-])N4C(=O)[C@@H](NC(=O)/C(=N\OC)c5nc(N)sc5Cl)[C@H]4SC3)cc2)cc1 [Compound 1-3],,8 to 16,> 16,,,,,,,,
